The values below come from patent publication US9598421B2, “Imidazopyridazine compounds” (Pfizer Inc., priority 2014, dated 2017).

Where two headings read alike, the source gives them in different places. A value given as a limit tells only on which side of the number the result lay.

What all share (assay type): biochemical
The target of one assay is Human PDE4A (Homo sapiens (Human), UniProt P27815). As to the kind of experiment: PDE4A Scintillation Proximity Assay (SPA), inhibition of enzyme activity. To be noted: read-out: Human PDE4A FL. For orientation: In a scintillation proximity assay essentially only radioactivity close to the scintillant gives light.
Chain of Human PDE4A (P27815 other isoform, or with tags, fused parts or gaps): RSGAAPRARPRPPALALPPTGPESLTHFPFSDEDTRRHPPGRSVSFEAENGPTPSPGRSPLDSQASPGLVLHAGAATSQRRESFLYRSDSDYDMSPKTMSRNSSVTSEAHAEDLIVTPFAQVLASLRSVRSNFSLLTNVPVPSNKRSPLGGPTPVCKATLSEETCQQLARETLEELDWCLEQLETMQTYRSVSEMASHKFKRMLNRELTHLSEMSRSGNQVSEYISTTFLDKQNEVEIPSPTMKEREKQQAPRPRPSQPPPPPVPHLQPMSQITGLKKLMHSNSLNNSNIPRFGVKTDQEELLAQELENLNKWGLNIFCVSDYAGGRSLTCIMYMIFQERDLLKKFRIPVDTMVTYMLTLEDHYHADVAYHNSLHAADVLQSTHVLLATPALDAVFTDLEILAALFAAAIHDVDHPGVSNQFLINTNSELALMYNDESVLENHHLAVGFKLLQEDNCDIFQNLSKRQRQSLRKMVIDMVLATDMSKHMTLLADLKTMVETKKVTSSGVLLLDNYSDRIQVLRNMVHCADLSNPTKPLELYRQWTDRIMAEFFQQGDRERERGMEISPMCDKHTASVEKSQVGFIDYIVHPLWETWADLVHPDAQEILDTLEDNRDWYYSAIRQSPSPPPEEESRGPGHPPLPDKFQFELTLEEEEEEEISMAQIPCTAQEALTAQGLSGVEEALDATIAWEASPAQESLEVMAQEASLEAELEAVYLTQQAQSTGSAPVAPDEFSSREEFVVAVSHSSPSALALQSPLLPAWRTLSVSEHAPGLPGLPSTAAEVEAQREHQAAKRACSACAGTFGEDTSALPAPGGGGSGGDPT
A further assay has as its target Human PDE4C (Homo sapiens (Human), UniProt Q08493). The experiment in a line: PDE4C Scintillation Proximity Assay (SPA), inhibition of enzyme activity. To be noted: read-out: Human PDE4C FL.
A further assay deals with Human PDE4D (Homo sapiens (Human), UniProt Q08499). The experiment in a line: PDE4D Scintillation Proximity Assay (SPA), inhibition of enzyme activity. Conditions: read-out: Human PDE4D FL.
Chain of Human PDE4D (Q08499 186-808): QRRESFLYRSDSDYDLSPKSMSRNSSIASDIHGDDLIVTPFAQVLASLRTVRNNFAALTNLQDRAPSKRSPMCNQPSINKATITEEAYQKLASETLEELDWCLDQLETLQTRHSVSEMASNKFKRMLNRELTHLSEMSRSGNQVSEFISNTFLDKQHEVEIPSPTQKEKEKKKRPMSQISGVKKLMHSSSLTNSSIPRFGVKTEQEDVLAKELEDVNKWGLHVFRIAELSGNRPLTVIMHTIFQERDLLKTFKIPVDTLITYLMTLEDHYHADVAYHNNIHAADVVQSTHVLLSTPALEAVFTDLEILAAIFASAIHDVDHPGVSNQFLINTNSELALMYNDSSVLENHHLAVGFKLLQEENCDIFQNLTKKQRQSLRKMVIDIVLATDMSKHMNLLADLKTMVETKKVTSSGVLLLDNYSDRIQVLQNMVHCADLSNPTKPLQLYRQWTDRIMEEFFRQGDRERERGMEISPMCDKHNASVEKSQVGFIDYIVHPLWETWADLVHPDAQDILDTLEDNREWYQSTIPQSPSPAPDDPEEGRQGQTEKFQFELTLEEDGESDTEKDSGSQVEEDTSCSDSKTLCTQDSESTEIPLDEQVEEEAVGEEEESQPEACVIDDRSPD
Setting [1] is: human recombinant enzyme, 1 μM cAMP substrate, 30 min at 25° C., geometric mean of 2-9 determinations unless otherwise indicated.

Chain of Human PDE4C (Q08493 2-712): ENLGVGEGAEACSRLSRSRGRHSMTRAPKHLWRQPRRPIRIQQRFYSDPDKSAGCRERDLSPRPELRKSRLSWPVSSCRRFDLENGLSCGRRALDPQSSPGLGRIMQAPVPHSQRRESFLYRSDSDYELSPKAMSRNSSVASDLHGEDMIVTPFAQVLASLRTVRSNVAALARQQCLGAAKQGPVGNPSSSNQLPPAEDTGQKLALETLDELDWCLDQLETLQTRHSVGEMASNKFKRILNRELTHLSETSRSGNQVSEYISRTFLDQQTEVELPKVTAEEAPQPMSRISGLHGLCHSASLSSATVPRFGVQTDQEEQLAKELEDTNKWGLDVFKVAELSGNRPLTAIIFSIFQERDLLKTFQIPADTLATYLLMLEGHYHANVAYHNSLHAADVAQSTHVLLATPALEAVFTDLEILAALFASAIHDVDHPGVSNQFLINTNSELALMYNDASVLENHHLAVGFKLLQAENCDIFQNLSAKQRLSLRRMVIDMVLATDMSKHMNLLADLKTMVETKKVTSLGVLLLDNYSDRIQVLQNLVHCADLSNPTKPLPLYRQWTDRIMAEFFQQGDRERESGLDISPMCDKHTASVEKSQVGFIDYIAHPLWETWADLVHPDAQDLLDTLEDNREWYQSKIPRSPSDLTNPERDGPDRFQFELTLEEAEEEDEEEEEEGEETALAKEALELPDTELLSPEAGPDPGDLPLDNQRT
Description for Human PDE4A: (§1) The PDE4A3, PDE4B1, PDE4C1 and PDE4D3 assays use the Scintillation Proximity Assay (SPA) technology to measure the inhibition of human recombinant PDE4A1, PDE4B3, PDE4C1, and PDE4D3 enzyme activity by compounds in vitro. The PDE4A1, PDE4B3, PDE4C1, and PDE4D3 assays are run in parallel using identical parameters, except for the concentration of enzyme (80 pM PDE4A3, 40 pM PDE4B3, 40 pM PDE4C1 and 10 pM PDE4D). […] Reactions are incubated for 30 min at 25° C. The addition of 20 uL of 8 mg/ml yitrium silicate SPA beads (Perkin Elmer) stops the reaction. The plates are sealed (TopSeal, Perkin Elmer) and the beads are allowed to settle for 8 hrs, after which they are read on the Trilux Microbeta overnight.
Description for Human PDE4C: as §1

Regarding `O=C(NC12CC(C1)C2)c1nc2cccnn2c1-c1ccc(Cl)cc1` [Example 37, N-(bicyclo[1.1.1]pent-1-yl)-3-(4-chlorophenyl)imidazo[1,2-b]pyridazine-2-carboxamide], the IC50 on Human PDE4A (setting [1]) was found to be 127 nM; at Human PDE4C (setting [1]), 161 nM; on Human PDE4D (setting [1]) it was 2570 nM.

Consider `O=C(NC1CC1)c1nc2cccnn2c1-c1cc(F)c(Cl)cc1F` [Example 9, 3-(4-Chloro-2,5-difluorophenyl)-N-cyclopropylimidazo[1,2-b]pyridazine-2-carboxamide], for which the IC50 at Human PDE4A (setting [1]) was determined as 3.83 nM; at Human PDE4C (setting [1]) it was 40.9 nM; on Human PDE4D (setting [1]), 1490 nM.

Turning to `Cc1cc(Cl)ccc1-c1c(C(=O)N[C@@H]2C[C@@H]2F)nc2cccnn12` [Example 70, 3-(4-chloro-2-methylphenyl)-N-[(1R,2S)-2-fluorocyclopropyl]imidazo[1,2-b]pyridazine-2-carboxamide], the IC50 at Human PDE4A (setting [1]) was 36.4 nM; at Human PDE4C (setting [1]), 90 nM; at Human PDE4D (setting [1]) it was 5760 nM.

Regarding `N#Cc1ccc(-c2c(C(=O)N3CCC3)nc3cccnn23)cc1F` [Example 23, 4-[2-(azetidin-1-ylcarbonyl)imidazo[1,2-b]pyridazin-3-yl]-2-fluorobenzonitrile], the IC50 at Human PDE4A (setting [1]) was found to be 15.1 nM; at Human PDE4C (setting [1]) it was 45.8 nM; on Human PDE4D (setting [1]) it was 4130 nM.

On to `O=C(NC1CC1)c1nc2cccnn2c1-c1ccc2ncoc2c1` [Example 88, 3-(1,3-benzoxazol-6-yl)-N-cyclopropylimidazo[1,2-b]pyridazine-2-carboxamide], for which the IC50 on Human PDE4A (setting [1]) was found to be 45 nM; at Human PDE4C (setting [1]), 136 nM; at Human PDE4D (setting [1]) it was 10400 nM.

With `Cc1cc(-c2c(C(=O)N3CCC3)nc3cccnn23)cc(C)c1F` [Example 53, azetidin-1-yl[3-(4-fluoro-3,5-dimethylphenyl)imidazo[1,2-b]pyridazin-2-yl]methanone], the IC50 at Human PDE4A (setting [1]) stood at 17.8 nM; at Human PDE4C (setting [1]), 153 nM; on Human PDE4D (setting [1]) it was 3110 nM.

On to `O=C(N[C@@H]1C[C@@H]1F)c1nc2cccnn2c1-c1ccc(Cl)cc1` [Example 46, 3-(4-chlorophenyl)-N-[(1R,2S)-2-fluorocyclopropyl]imidazo[1,2-b]pyridazine-2-carboxamide], for which the IC50 on Human PDE4A (setting [1]) was found to be 15.2 nM; at Human PDE4C (setting [1]) it was 39.3 nM; at Human PDE4D (setting [1]), 971 nM.

With `CNC(=O)c1nc2cccnn2c1-c1cc(F)c(Cl)cc1F` [Example 93, 3-(4-chloro-2,5-difluorophenyl)-N-methylimidazo[1,2-b]pyridazine-2-carboxamide], the figures for the IC50 at Human PDE4A (setting [1]), on Human PDE4C (setting [1]) and on Human PDE4D (setting [1]) were 62.9 nM, 134 nM and 4110 nM, respectively.

In the case of `CCNC(=O)c1nc2cccnn2c1-c1cc(F)c(C#N)cc1C` [Example 98, 3-(4-cyano-5-fluoro-2-methylphenyl)-N-ethylimidazo[1,2-b]pyridazine-2-carboxamide], the values for the IC50 at Human PDE4A (setting [1]), on Human PDE4C (setting [1]) and at Human PDE4D (setting [1]) were 26.6 nM, 107 nM and 3320 nM, respectively.

For the molecule `O=C(NC1CC1)c1nc2cccnn2c1-c1ccc2ocnc2c1` [Example 39, 3-(1,3-benzoxazol-5-yl)-N-cyclopropylimidazo[1,2-b]pyridazine-2-carboxamide], the IC50 on Human PDE4A (setting [1]) stood at 14.8 nM; on Human PDE4C (setting [1]), 67.8 nM; on Human PDE4D (setting [1]), 3820 nM.

As to `Cc1ccc(-c2c(C(=O)N3CCC3)nc3cccnn23)c(F)c1` [Example 54, azetidin-1-yl[3-(2-fluoro-4-methylphenyl)imidazo[1,2-b]pyridazin-2-yl]methanone], the IC50 on Human PDE4A (setting [1]) is 103 nM; at Human PDE4C (setting [1]), 136 nM; on Human PDE4D (setting [1]), > 20000 nM.

In the case of `O=C(c1nc2cccnn2c1-c1ccc2ncoc2c1)N1CCC1` [Example 77, azetidin-1-yl[3-(1,3-benzoxazol-6-yl)imidazo[1,2-b]pyridazin-2-yl]methanone], the figures for the IC50 on Human PDE4A (setting [1]), at Human PDE4C (setting [1]) and on Human PDE4D (setting [1]) were 46.1 nM, 186 nM and > 16600 nM, respectively.

For the molecule `CNC(=O)c1nc2cccnn2c1-c1ccc(Cl)c(F)c1` [Example 94, 3-(4-chloro-3-fluorophenyl)-N-methylimidazo[1,2-b]pyridazine-2-carboxamide], the IC50 on Human PDE4A (setting [1]) is 24.9 nM; at Human PDE4C (setting [1]) it was 65 nM; at Human PDE4D (setting [1]) it was 5380 nM.

Consider `Cc1cc2ncnn2cc1-c1c(C(=O)NC2CC2)nc2cccnn12` [Example 89, N-cyclopropyl-3-(7-methyl[1,2,4]triazolo[1,5-a]pyridin-6-yl)imidazo[1,2-b]pyridazine-2-carboxamide], for which the figures for the IC50 at Human PDE4A (setting [1]), on Human PDE4C (setting [1]) and on Human PDE4D (setting [1]) were 829 nM, 3760 nM and > 17200 nM, respectively.

`O=C(NC1CC1)c1nc2cccnn2c1-c1ccc(OC(F)F)nc1` [Example 87, N-cyclopropyl-3-[6-(difluoromethoxy)pyridin-3-yl]imidazo[1,2-b]pyridazine-2-carboxamide]: the IC50 on Human PDE4A (setting [1]) amounted to 240 nM; at Human PDE4C (setting [1]), 397 nM; on Human PDE4D (setting [1]), 6790 nM.

On to `O=C(NC1CC1)c1nc2cccnn2c1-c1cc(F)cc(Cl)c1` [Example 35, 3-(3-chloro-5-fluorophenyl)-N-cyclopropylimidazo[1,2-b]pyridazine-2-carboxamide], for which the IC50 on Human PDE4A (setting [1]) was 35.7 nM; on Human PDE4C (setting [1]), 37 nM; at Human PDE4D (setting [1]) it was 1220 nM.

As for `O=C(NC1CC1)c1nc2cccnn2c1-c1cncc(Cl)c1` [Example 14, 3-(5-chloropyridin-3-yl)-N-cyclopropylimidazo[1,2-b]pyridazine-2-carboxamide], the IC50 on Human PDE4A (setting [1]) is 73.7 nM; on Human PDE4C (setting [1]), 108 nM; at Human PDE4D (setting [1]) it was > 8010 nM.

As for `CCNC(=O)c1nc2cccnn2c1-c1ccc(Cl)cc1` [Example 85, 3-(4-chlorophenyl)-N-ethylimidazo[1,2-b]pyridazine-2-carboxamide], the IC50 at Human PDE4A (setting [1]) stood at 25.6 nM; on Human PDE4C (setting [1]) it was 47.2 nM; at Human PDE4D (setting [1]) it was 6700 nM.

As to `O=C(c1nc2cccnn2c1-c1ccc(Cl)cc1F)N1CCC1` [Example 52, azetidin-1-yl[3-(4-chloro-2-fluorophenyl)imidazo[1,2-b]pyridazin-2-yl]methanone], the IC50 at Human PDE4A (setting [1]) came out at 24.3 nM; at Human PDE4C (setting [1]) it was 113 nM; on Human PDE4D (setting [1]), 5510 nM.

On to `CCCNC(=O)c1nc2cccnn2c1-c1ccc(Cl)cc1` [Example 26, 3-(4-chlorophenyl)-N-propylimidazo[1,2-b]pyridazine-2-carboxamide], for which the figures for the IC50 on Human PDE4A (setting [1]), at Human PDE4C (setting [1]) and on Human PDE4D (setting [1]) were 85.5 nM, 111 nM and 3800 nM, respectively.

Regarding `O=C(c1nc2cccnn2c1-c1ccnc(OC(F)F)c1)N1CCC1` [Example 76, azetidin-1-yl{3-[2-(difluoromethoxy)pyridin-4-yl]imidazo[1,2-b]pyridazin-2-yl}methanone], the IC50 at Human PDE4A (setting [1]) came to 7.09 nM; at Human PDE4C (setting [1]), 22.2 nM; at Human PDE4D (setting [1]) it was 94.5 nM.

`O=C(Nc1ncccn1)c1nc2cccnn2c1-c1ccc(Cl)cc1` [Example 101, 3-(4-chlorophenyl)-N-(pyrimidin-2-yl)imidazo[1,2-b]pyridazine-2-carboxamide]: the IC50 on Human PDE4A (setting [1]) was 268 nM; at Human PDE4C (setting [1]), 1180 nM; at Human PDE4D (setting [1]), > 25900 nM.

In the case of `COc1c(F)cc(-c2c(C(=O)N3CCC3)nc3cccnn23)cc1F` [Example 3, Azetidin-1-yl[3-(3,5-difluoro-4-methoxyphenyl)imidazo[1,2-b]pyridazin-2-yl]methanone], the IC50 on Human PDE4A is 12.7 nM; at Human PDE4C it was 51.9 nM; on Human PDE4D it was 2410 nM.

Regarding `O=C(c1nc2cccnn2c1-c1ccc(Cl)cc1)N1CC(F)C1` [Example 60, [3-(4-chlorophenyl)imidazo[1,2-b]pyridazin-2-yl](3-fluoroazetidin-1-yl)methanone], the IC50 at Human PDE4A (setting [1]) is 269 nM; at Human PDE4C (setting [1]), 287 nM; on Human PDE4D (setting [1]), > 4930 nM.

As for `N#Cc1ccc(-c2c(C(=O)NC3CC3)nc3cccnn23)cn1` [Example 5, 3-(6-Cyanopyridin-3-yl)-N-cyclopropylimidazo[1,2-b]pyridazine-2-carboxamide], the IC50 at Human PDE4A (setting [1]) was 40.2 nM; at Human PDE4C (setting [1]), 208 nM; on Human PDE4D, > 26600 nM.

Regarding `Cc1cc(C#N)c(F)cc1-c1c(C(=O)N2CCC2)nc2cccnn12` [Example 20, 4-[2-(azetidin-1-ylcarbonyl)imidazo[1,2-b]pyridazin-3-yl]-2-fluoro-5-methylbenzonitrile], the figures for the IC50 at Human PDE4A (setting [1]), on Human PDE4C (setting [1]) and on Human PDE4D (setting [1]) were 6.7 nM, 74.8 nM and 490 nM, respectively.

Regarding `CNC(=O)c1nc2cccnn2c1-c1cc(F)c(Cl)cc1C` [Example 25, 3-(4-chloro-5-fluoro-2-methylphenyl)-N-methylimidazo[1,2-b]pyridazine-2-carboxamide], the IC50 at Human PDE4A (setting [1]) is 38.6 nM; at Human PDE4C (setting [1]), 150 nM; at Human PDE4D (setting [1]), 4970 nM.

`O=C(c1nc2cccnn2c1-c1ccc2ccnn2c1)N1CCC1` [Example 8, Azetidin-1-yl[3-(pyrazolo[1,5-a]pyridin-6-yl)imidazo[1,2-b]pyridazin-2-yl]methanone]: the IC50 came to 20 nM at Human PDE4A (setting [1]) and 5440 nM at Human PDE4D (setting [1]).

As to `O=C(c1nc2cccnn2c1-c1ccc(Cl)cc1)N1CCC1` [Example 1, Azetidin-1-yl[3-(4-chlorophenyl)imidazo[1,2-b]pyridazin-2-yl]methanone], the values for the IC50 on Human PDE4C and on Human PDE4D were 130 nM and 10300 nM, respectively.

In the case of `O=C(c1nc2cccnn2c1-c1cncc(Cl)c1)N1CCC1` [Example 15, azetidin-1-yl[3-(5-chloropyridin-3-yl)imidazo[1,2-b]pyridazin-2-yl]methanone], at Human PDE4A (setting [1]), the IC50 is 264 nM.

As to `Cc1ccc(-c2c(C(=O)N3CCC3)nc3cccnn23)cc1Cl` [Example 49, azetidin-1-yl[3-(3-chloro-4-methylphenyl)imidazo[1,2-b]pyridazin-2-yl]methanone], the IC50 at Human PDE4A (setting [1]) came to 4.16 nM.
